Here are results for 32 molecules from US8822451B2, “Modulators of ATP-binding cassette transporters” (Vertex Pharmaceuticals Incorporated, priority 2005, dated 2014).

The structures appear in SMILES notation.

The target in this assay is T1, […]F508-CFTR (Homo sapiens, UniProt P13569, DEL508-508).
T1 construct: expressed in transfected cells
Nature of the assay: Assay results of Table 3: ΔF508-CFTR modulation, membrane potential optical assay (assay format not stated). The assay is classed as cell-based. The settings on record: NIH3T3 mouse fibroblasts stably expressing […]F508-CFTR (optical assays); for Efficacy: efficacy range; for EC50: potency range. Summed up: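 Two VIPR II FRET voltage-dye formats in ΔF508-CFTR NIH3T3 cells yield EC50 and efficacy. Potentiator mode: 27° C.-corrected cells get compound in Cl⁻-free medium, forskolin 2-10 μM after 22 s (final Cl⁻ 28 mM). Corrector mode: compound 16 h at 37° C., activation with forskolin 10 μM plus genistein 20 μM.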

T1 sequence (P13569 with tags, fused parts or gaps DEL508-508): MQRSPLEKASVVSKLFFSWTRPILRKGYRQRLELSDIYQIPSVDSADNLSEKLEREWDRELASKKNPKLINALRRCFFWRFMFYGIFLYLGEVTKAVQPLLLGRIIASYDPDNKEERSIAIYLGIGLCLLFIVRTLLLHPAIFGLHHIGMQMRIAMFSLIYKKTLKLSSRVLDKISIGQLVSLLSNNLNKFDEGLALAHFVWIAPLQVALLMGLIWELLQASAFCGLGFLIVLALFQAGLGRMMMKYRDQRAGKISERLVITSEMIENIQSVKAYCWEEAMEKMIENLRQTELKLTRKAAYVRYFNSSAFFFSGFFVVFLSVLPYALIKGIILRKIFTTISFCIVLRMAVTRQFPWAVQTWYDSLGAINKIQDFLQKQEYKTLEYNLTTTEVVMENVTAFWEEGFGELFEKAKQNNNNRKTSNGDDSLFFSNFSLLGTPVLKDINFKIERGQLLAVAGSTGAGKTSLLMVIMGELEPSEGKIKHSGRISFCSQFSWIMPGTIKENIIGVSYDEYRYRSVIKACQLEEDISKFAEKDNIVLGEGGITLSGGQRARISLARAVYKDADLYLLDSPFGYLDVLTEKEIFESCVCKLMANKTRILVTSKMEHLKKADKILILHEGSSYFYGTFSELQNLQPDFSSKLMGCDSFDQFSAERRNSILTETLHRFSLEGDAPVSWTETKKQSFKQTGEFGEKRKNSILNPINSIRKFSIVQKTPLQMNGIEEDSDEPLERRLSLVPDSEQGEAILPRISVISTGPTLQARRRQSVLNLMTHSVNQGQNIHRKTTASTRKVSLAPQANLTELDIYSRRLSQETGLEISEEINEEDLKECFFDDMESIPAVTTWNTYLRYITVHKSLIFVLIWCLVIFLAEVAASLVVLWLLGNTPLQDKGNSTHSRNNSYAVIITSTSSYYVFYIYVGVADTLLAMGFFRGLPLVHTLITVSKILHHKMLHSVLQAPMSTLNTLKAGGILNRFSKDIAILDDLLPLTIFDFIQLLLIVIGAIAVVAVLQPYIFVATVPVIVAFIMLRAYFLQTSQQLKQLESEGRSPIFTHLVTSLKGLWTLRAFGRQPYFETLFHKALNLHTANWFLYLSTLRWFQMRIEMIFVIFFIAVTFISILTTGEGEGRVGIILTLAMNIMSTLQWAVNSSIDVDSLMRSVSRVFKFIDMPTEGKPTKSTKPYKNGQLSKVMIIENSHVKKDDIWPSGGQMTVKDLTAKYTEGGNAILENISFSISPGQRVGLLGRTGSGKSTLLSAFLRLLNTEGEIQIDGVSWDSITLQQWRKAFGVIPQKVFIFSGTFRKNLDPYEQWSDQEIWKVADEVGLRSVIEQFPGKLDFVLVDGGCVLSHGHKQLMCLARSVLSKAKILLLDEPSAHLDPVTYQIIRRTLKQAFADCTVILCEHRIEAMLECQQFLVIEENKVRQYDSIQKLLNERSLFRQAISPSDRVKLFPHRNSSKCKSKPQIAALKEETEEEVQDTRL

One may read the EC50 as the concentration giving half of the maximal effect. `CCN(CCc1ccccn1)c1nc(C(N)=O)cc(-c2ccccc2)n1` [Compound 218]: the Efficacy result is on record as “+++ (+++ corresponds to Efficacy greater than 100)” and the EC50 was in the range of 1 to 5 µM.

Turning to `NC(=O)c1cc(-c2ccccc2OC(F)(F)F)nc(N2CCCCC2)n1` [Compound 152], the Efficacy result was “++ (++ corresponds to Efficacy between 100 and 50)”; the EC50 is 1 to 5 µM.

Take `O=C(c1cc(-c2ccccc2)nc(N2CC=CC2)n1)N1CC=CC1` [Compound 93]: the Efficacy result was “++ (++ corresponds to Efficacy between 100 and 50)”; the EC50 was greater than 5 µM.

On to `NC(=O)c1cc(-c2ccccc2)nc(N2CCC(Cc3ccccc3)CC2)n1` [Compound 37], for which the Efficacy entry was “++ (++ corresponds to Efficacy between 100 and 50)”; the EC50 is greater than 5 µM.

Consider `NC(=O)c1cc(-c2ccccc2)nc(N2CC=CC2)n1` [Compound 79], for which the Efficacy entry was “+++ (+++ corresponds to Efficacy greater than 100)” and the EC50 fell in the range of 1 to 5 µM.

`CCN(CC)c1nc(C(N)=O)cc(-c2cc(Cl)cc(Cl)c2)n1` [Compound 226]: the Efficacy result was “++ (++ corresponds to Efficacy between 100 and 50)”; the half-maximal effective concentration (EC50) lay in the range of 1 to 5 µM.

With `NC(=O)c1cc(-c2ccccc2)nc(NCC2CC2)n1` [Compound 27], the Efficacy entry is “++ (++ corresponds to Efficacy between 100 and 50)”; the EC50 was greater than 5 µM.

On to `NC(=O)c1cc(-c2csc3ccccc23)nc(N2CCCCC2)n1` [Compound 144], for which the Efficacy result is “++ (++ corresponds to Efficacy between 100 and 50)”; the EC50 is greater than 5 µM.

For `NC(=O)c1cc(-c2ccccc2)nc(-n2cccn2)n1` [Compound 57], the Efficacy result is on record as “+ (+ corresponds to Efficacy less than 50)” and the concentration giving a half-maximal response (EC50) was greater than 5 µM.

With `CCN(CC)c1nc(C(N)=O)cc(-c2cnc(OC)nc2OC)n1` [Compound 174], the Efficacy entry is “++ (++ corresponds to Efficacy between 100 and 50)”; the 50% effective concentration (EC50) was greater than 5 µM.

As for `CN(Cc1cccnc1)c1nc(C(N)=O)cc(-c2ccccc2)n1` [Compound 18], the Efficacy entry is “++ (++ corresponds to Efficacy between 100 and 50)”; the concentration giving a half-maximal response (EC50) was greater than 5 µM.

For `CC(C)CN(CC(C)C)c1nc(C(N)=O)cc(-c2ccccc2)n1` [Compound 196], the Efficacy result is “+ (+ corresponds to Efficacy less than 50)” and the concentration for a half-maximal effect (EC50) was 1 to 5 µM.

Regarding `CCCCCN(C)c1nc(C(N)=O)cc(-c2ccccc2)n1` [Compound 186], the Efficacy entry was “+++ (+++ corresponds to Efficacy greater than 100)” and the EC50 was 1 to 5 µM.

With `COc1ccccc1-c1cc(C(N)=O)nc(N(C)C)n1` [Compound 208], the Efficacy result was “+ (+ corresponds to Efficacy less than 50)” and the concentration giving a half-maximal response (EC50) was greater than 5 µM.

Consider `CNC(=O)c1cc(-c2ccccc2)nc(NCc2ccco2)n1` [Compound 2], for which the Efficacy entry was “++ (++ corresponds to Efficacy between 100 and 50)”; the EC50 was greater than 5 µM.

Take `CCN(Cc1ccccc1)c1nc(C(N)=O)cc(-c2ccccc2)n1` [Compound 50]: the Efficacy result is “+++ (+++ corresponds to Efficacy greater than 100)” and the EC50 is less than 1 µM.

With `CC(C)OC(=O)c1cccc(-c2cc(C(N)=O)nc(N3CCCCC3)n2)c1` [Compound 17], the Efficacy entry is “++ (++ corresponds to Efficacy between 100 and 50)”; the EC50 is 1 to 5 µM.

In the case of `CCCN(CC1CC1)c1nc(C(N)=O)cc(-c2ccccc2OC)n1` [Compound 39], the Efficacy result was “+++ (+++ corresponds to Efficacy greater than 100)” and the EC50 was greater than 5 µM.

With `CCN(CC)c1nc(C(N)=O)cc(-c2cc(F)cc(F)c2)n1` [Compound 151], the Efficacy result is on record as “+++ (+++ corresponds to Efficacy greater than 100)” and the EC50 was 1 to 5 µM.

On to `CCN(CC)c1nc(C(N)=O)cc(-c2ccccc2C)n1` [Compound 61], for which the Efficacy result was “++ (++ corresponds to Efficacy between 100 and 50)”; the EC50 fell in the range of 1 to 5 µM.

For the molecule `NC(=O)c1cc(-c2cccc(F)c2F)nc(N2CCCCC2)n1` [Compound 6], the Efficacy result was “++ (++ corresponds to Efficacy between 100 and 50)”; the concentration for a half-maximal effect (EC50) was 1 to 5 µM.

As for `CN(CC(O)c1ccccc1)c1nc(C(N)=O)cc(-c2ccccc2)n1` (stereo not shown) [Compound 101], the Efficacy result is listed as “+++ (+++ corresponds to Efficacy greater than 100)” and the 50% effective concentration (EC50) was greater than 5 µM.

Regarding `CCN(CC)c1nc(C(=O)NCc2ccccc2)cc(-c2ccccc2)n1` [Compound 97], the Efficacy result is “++ (++ corresponds to Efficacy between 100 and 50)”; the EC50 is greater than 5 µM.

Consider `CN(C)c1nc(C(N)=O)cc(-c2ccccc2)n1` [Compound 9], for which the Efficacy result was “++ (++ corresponds to Efficacy between 100 and 50)”; the concentration for a half-maximal effect (EC50) is greater than 5 µM.

On to `COc1cccc(-c2cc(C(N)=O)nc(N3CCCCCC3)n2)c1` [Compound 161], for which the Efficacy result was “+++ (+++ corresponds to Efficacy greater than 100)” and the EC50 lay within 1 to 5 µM.

Consider `C=CCNc1nc(C(N)=O)cc(-c2ccccc2OC)n1` [Compound 178], for which the Efficacy result is recorded as “+++ (+++ corresponds to Efficacy greater than 100)” and the EC50 lay within 1 to 5 µM.

On to `CCCN(CC1CC1)c1nc(C(N)=O)cc(-c2ccccc2)n1` [Compound 87], for which the Efficacy result was “++ (++ corresponds to Efficacy between 100 and 50)”; the 50% effective concentration (EC50) was 1 to 5 µM.

For the molecule `CC(C)c1ccc(-c2cc(C(N)=O)nc(N3CCCCC3)n2)cc1` [Compound 166], the Efficacy result is listed as “+ (+ corresponds to Efficacy less than 50)” and the EC50 is greater than 5 µM.

Take `CCN(CC)c1nc(C(N)=O)cc(-c2cc(C)cs2)n1` [Compound 66]: the Efficacy result is “+++ (+++ corresponds to Efficacy greater than 100)” and the 50% effective concentration (EC50) was less than 1 µM.

Consider `CCN(CC)c1nc(C(N)=O)cc(-c2ccc(F)c(C)c2)n1` [Compound 131], for which the Efficacy result is “+++ (+++ corresponds to Efficacy greater than 100)” and the EC50 fell in the range of 1 to 5 µM.

As to `C=CCNc1nc(C(N)=O)cc(-c2cccc(OC)c2)n1` [Compound 48], the Efficacy result is “++ (++ corresponds to Efficacy between 100 and 50)”; the half-maximal effective concentration (EC50) is greater than 5 µM.

As to `C#CCNc1nc(C(N)=O)cc(-c2ccccc2)n1` [Compound 154], the Efficacy result is “+ (+ corresponds to Efficacy less than 50)” and the EC50 is greater than 5 µM.
